These results are taken from patent US20060148796A1, “6-Substituted imidazopyrazines” (priority 2003, published 2006).

Molecules are shown by their SMILES.

Series [1] concerns pentagastrin-stimulated acid secretion of the perfused rat stomach. Description: Secretion-inhibiting action on the perfused rat stomach (pentagastrin-stimulated acid secretion, intraduodenal administration in vivo). Particulars: dose 1 μmol/kg i.d., perfused stomach of anesthetized CD rat, female. The text has this: Testing of the Secretion-Inhibiting Action on the Perfused Rat Stomach
In Table A which follows, the influence of the compounds according to the invention on the pentagastrin-stimulated add secretion of the perfused rat stomach after intraduodenal administration in vivo is shown.
The abdomen of anesthetized rats (CD rat, female, 200-250 g; 1.5 g/kg Im. urethane) was opened after tracheotomy by a median upper abdominal incision and a PVC catheter was fixed transorally in the esophagus and another via the pylorus such that the ends of the tubes just projected into the gastric lumen. The catheter leading from the pylorus led outward into the right abdominal wall through a side opening.
After thorough rinsing (about 50-100 ml), warm (37° C.) physiological NaCl solution was continuously passed through the stomach (0.5 ml/min, pH 6.8-6.9; Braun-Unita I). The pH (pH meter 632, glass electrode EA 147; φ=5 mm, Metrohm) and, by titration with a freshly prepared 0.01N NaOH solution to pH 7 (Dosimat 665 Metrohm), the secreted HCl were determined in the effluent in each case collected at an interval of 15 minutes.
The gastric secretion was stimulated by continuous infusion of […] (=1.65 ml/h) of i.v. pentagastrin (left femoral vein) about 30 min after the end of the operation (.e. after determination of 2 preliminary fractions). […]

On to `CCc1cccc(C)c1CNc1nc(C(=O)N(C)C)cn2c(C)c(C)nc12` [Example 5, 6-(Dimethylaminocarbonyl)-8-(2-ethyl-6-methyl-benzylamino)-2,3-dimethyl-imidazo[1,2a]-pyrazine], for which the “Inhibition of acid secretion (%)” value in series [1] was 49%.

What is called melting point is the temperature of the solid-liquid transition. `CCc1cccc(C)c1CNc1nc(COC)cn2c(C)c(C)nc12.Cl` [Example 13, 8-(2-Ethyl-6-methyl-benzylamino)-6-(methoxymethyl)-2,3-dimethyl-imidazo[1,2-a]pyrazine hydrochloride] showed a melting point of 177 °C. The “Inhibition of acid secretion (%)” value in series [1] is on record as 46%.

As for `CCc1cccc(C)c1CNc1nc(Br)cn2c(C)c(C)nc12.O=C(O)C(=O)O` [Example 3, 6-Bromo-8(2-ethyl-6-methyl-benzylamino)-2,3-dimethyl-imidazo[1,2-a]pyrazine oxalate], the melting point is 163 °C.

Consider `CCc1cccc(C)c1CNc1nc(C(=O)O)cn2c(C)c(C)nc12` [Example 6, 8-(2-Ethyl-6-methyl-benzylamino)-2,3-dimethyl-imidazo[1,2-a]pyrazine-6-carboxylic acid], for which the melting point was 230 °C.

As for `CCc1cccc(C)c1CNc1nc(CO)cn2c(C)c(C)nc12` [Example 12, 8-(2-Ethyl-6-methyl-benzylamino)-6-(hydroxymethyl)-2,3-dimethyl-imidazo[1,2-a]pyrazine], the melting point turned out to be 166 °C.

`CCOC(=O)c1cn2c(C)c(C)nc2c(NCc2c(C)cccc2CC)n1` [Example 4, Ethyl 8-(2-ethyl-6-methyl-benzylamino)-2,3-dimethyl-imidazo[1,2-a]pyrazine-6-carboxylate] displayed a melting point of 144 °C.

For the compound `CCc1cccc(C)c1CNc1nc(C(=O)N2CCCC2)cn2c(C)c(C)nc12` [Example 7, 8-(2-Ethyl-6-methyl-benzylamino)-6-(pyrrolidinocarbonyl)-2,3-dimethyl-imidazo[1,2-a]pyrazine], the melting point worked out at 197 °C.
